Experimental data from patent publication US20230241188A1 (priority 2020, published 2023).

Tested on: spike mutant (ΔS) SARS-CoV-2 strain (EPI_ISL_578177)
Assay type: cell-based

CC(=O)N[C@@H](CS)C(=O)O [Acetylcysteine, acetylcysteine]
viral inhibition (CPE, optical and Neutral Red cell staining): no viral inhibition
